Reference: US11957687B2 (REGENERON PHARMACEUTICALS, INC., priority 2019, dated 2024)

target: HSD17B13 (Homo sapiens (Human), UniProt Q7Z5P4); experiment: HSD17B13 enzymatic inhibition assay (150 nM or 50 nM HSD17B13); type: biochemical; conditions: 50 nM HSD17B13; read-out: Inhibition of 50 nM of HSD17B13 IC50
Sequence (Q7Z5P4 other isoform, or with tags, fused parts or gaps): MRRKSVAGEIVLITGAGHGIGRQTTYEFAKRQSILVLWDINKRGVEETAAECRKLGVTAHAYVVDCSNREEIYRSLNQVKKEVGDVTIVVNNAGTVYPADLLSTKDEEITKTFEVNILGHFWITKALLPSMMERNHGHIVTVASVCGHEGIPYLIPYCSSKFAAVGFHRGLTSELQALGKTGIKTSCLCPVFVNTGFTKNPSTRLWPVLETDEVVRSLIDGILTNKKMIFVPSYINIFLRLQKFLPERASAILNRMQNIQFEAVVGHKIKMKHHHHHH

Compared with `O=C(NC(c1ccc(Cl)cc1)c1cncnc1)c1ccc(C(F)(F)F)[nH]c1=O` (stereo not shown) [Compound 220, N-((4-chlorophenyl)(pyrimidin-5-yl)methyl)-2-oxo-6-(trifluoromethyl)-1,2-dihydropyridine-3-carboxamide], `O=C(NC(c1ccccc1)c1ccc(-c2cncnc2)cc1)c1ccc(C(F)(F)F)[nH]c1=O` (stereo not shown) [Compound 92, N-(phenyl(4-(pyrimidin-5-yl)phenyl)methyl)-2-oxo-6-(trifluoromethyl)-1,2-dihydropyridine-3-carboxamide] is lower in IC50: greater than 10000 nM for the first, 2140 nM for the second.

Going from `Cc1cc(C(F)(F)F)[nH]c(=O)c1C(=O)NC1c2ccccc2Oc2cc(Cl)ccc21` (stereo not shown) [Compound 196, N-(3-chloro-9H-xanthen-9-yl)-4-methyl-2-oxo-6-(trifluoromethyl)-1,2-dihydropyridine-3-carboxamide] to `C=Cc1cc(C(=O)NC2c3ccc(C)cc3Oc3cccc(C)c32)c(=O)[nH]c1C(F)(F)F` (stereo not shown) [Compound 168, N-(1,6-dimethyl-9H-xanthen-9-yl)-2-oxo-6-(trifluoromethyl)-5-vinyl-1,2-dihydropyridine-3-carboxamide], the IC50 falls from 630 nM to 330 nM (1.9-fold).

First: Cc1cc(C(F)(F)F)[nH]c(=O)c1C(=O)NC(c1ccccc1)c1ccccc1 [Compound 123, N-benzhydryl-4-methyl-2-oxo-6-(trifluoromethyl)-1,2-dihydropyridine-3-carboxamide]
Second: Cc1ccc(C(NC(=O)c2c(C)cc(C(F)(F)F)[nH]c2=O)c2ccccc2)cc1 (stereo not shown) [Compound 126, 4-methyl-2-oxo-N-(phenyl(p-tolyl)methyl)-6-(trifluoromethyl)-1,2-dihydropyridine-3-carboxamide]
The IC50 of the first is 3.3-fold higher: 5790 nM for the first, 1750 nM for the second. The second is the more potent here.

`Cc1ccc2c(c1)S(=O)(=O)c1cccc(C)c1C2NC(=O)c1ccc(C(F)(F)F)[nH]c1=O` (stereo not shown) [Compound 476, N-(1,6-dimethyl-10,10-dioxido-9H-thioxanthen-9-yl)-2-oxo-6-(trifluoromethyl)-1,2-dihydropyridine-3-carboxamide] and `Cc1ccc2c(c1)Oc1cccc(C)c1C2NC(=O)c1ccc(C)[nH]c1=O` (stereo not shown) [Compound 147, N-(1,6-dimethyl-9H-xanthen-9-yl)-6-methyl-2-oxo-1,2-dihydropyridine-3-carboxamide] cannot be ordered by IC50: greater than 10000 nM for the first, greater than 10000 nM for the second.

First: C=Cc1ccc2c(c1)C(NC(=O)c1ccc(C(F)(F)F)[nH]c1=O)c1ccccc1S2 (stereo not shown) [Compound 536, 2-oxo-6-(trifluoromethyl)-N-(2-vinyl-9H-thioxanthen-9-yl)-1,2-dihydropyridine-3-carboxamide]
Second: O=C(NC1CCc2c(O)cccc21)c1ccc(C(F)(F)F)[nH]c1=O (stereo not shown) [Compound 136, N-(4-hydroxy-2,3-dihydro-1H-inden-1-yl)-2-oxo-6-(trifluoromethyl)-1,2-dihydropyridine-3-carboxamide]
The IC50 of the first is 3.5-fold lower: 320 nM for the first, 1130 nM for the second.

Going from `Cc1ccc2c(c1)Oc1cccc(C)c1C2NC(=O)c1cc(CCc2ccccc2)c(C(F)(F)F)[nH]c1=O` (stereo not shown) [Compound 184, N-(1,6-dimethyl-9H-xanthen-9-yl)-2-oxo-5-phenethyl-6-(trifluoromethyl)-1,2-dihydropyridine-3-carboxamide] to `COc1ccc2c(c1)Oc1cc(OC)ccc1C2NC(=O)c1cc(-c2ccccc2)c(C(F)(F)F)[nH]c1=O` [Compound 239, N-(3,6-dimethoxy-9H-xanthen-9-yl)-2-oxo-5-phenyl-6-(trifluoromethyl)-1,2-dihydropyridine-3-carboxamide], the IC50 falls from 150 nM to 100 nM (1.5-fold).

`O=C(NC(c1ccccc1)c1cccc(Br)n1)c1ccc(C(F)(F)F)[nH]c1=O` (stereo not shown) [Compound 72, N-((6-bromopyridin-2-yl)(phenyl)methyl)-2-oxo-6-(trifluoromethyl)-1,2-dihydropyridine-3-carboxamide] and `O=C(NC(c1ccccc1)c1cccc(=O)[nH]1)c1ccc(C(F)(F)F)[nH]c1=O` (stereo not shown) [Compound 221, 2-oxo-N-((6-oxo-1,6-dihydropyridin-2-yl)(phenyl)methyl)-6-(trifluoromethyl)-1,2-dihydropyridine-3-carboxamide] are within 1.5-fold of each other in IC50: 7050 nM for the first, 6400 nM for the second.

First: CC(NC(=O)c1ccc(C(F)(F)F)[nH]c1=O)(c1ccc(O)cc1)c1ccc(O)cc1 [Compound 21A, N-(1,1-bis(4-hydroxyphenyl)ethyl)-2-oxo-6-(trifluoromethyl)-1,2-dihydropyridine-3-carboxamide]
Second: CCc1cccc(C(NC(=O)c2ccc(C(F)(F)F)[nH]c2=O)c2ccccc2SC)c1 (stereo not shown) [Compound 455, N-((3-ethylphenyl)(2-(methylthio)phenyl)methyl)-2-oxo-6-(trifluoromethyl)-1,2-dihydropyridine-3-carboxamide]
The IC50 of the first is 2.1-fold higher: 1850 nM for the first, 870 nM for the second. The second is the more potent here.

Going from `O=C(Nc1cc(-c2ccccc2)cc(-c2ccccc2)c1)c1ccc(C(F)(F)F)[nH]c1=O` [Compound 60, N-([1,1′:3′,1″-terphenyl]-5′-yl)-2-oxo-6-(trifluoromethyl)-1,2-dihydropyridine-3-carboxamide] to `O=C(NC(c1ccccc1)c1ccc(-c2ncccn2)cc1)c1ccc(C(F)(F)F)[nH]c1=O` (stereo not shown) [Compound 97, 2-oxo-N-(phenyl(4-(pyrimidin-2-yl)phenyl)methyl)-6-(trifluoromethyl)-1,2-dihydropyridine-3-carboxamide], the IC50 falls from greater than 10000 nM to 2300 nM. The second is the more potent here.

Compared with `C=CCc1cc(C(=O)NC(c2ccc(C)cc2)c2ccc(C)cc2)c(=O)[nH]c1C(F)(F)F` [Compound 121, 5-allyl-N-(di-p-tolylmethyl)-2-oxo-6-(trifluoromethyl)-1,2-dihydropyridine-3-carboxamide], `O=C(NC(c1ccccc1)c1ccc(C2=CCCCC2)cc1)c1ccc(C(F)(F)F)[nH]c1=O` (stereo not shown) [Compound 32, 2-oxo-N-(phenyl(2′,3′,4,5′-tetrahydro-[1,1′-biphenyl]-4-yl)methyl)-6-(trifluoromethyl)-1,2-dihydropyridine-3-carboxamide] is 1.8-fold higher in IC50: 220 nM for the first, 400 nM for the second.

First: N#Cc1cccc2c1CCCC2NC(=O)c1ccc(C(F)(F)F)[nH]c1=O (stereo not shown) [Compound 549, N-(5-cyano-1,2,3,4-tetrahydronaphthalen-1-yl)-2-oxo-6-(trifluoromethyl)-1,2-dihydropyridine-3-carboxamide]
Second: Cc1ccc(C(CC2CCCC2)NC(=O)c2ccc(C(F)(F)F)[nH]c2=O)cc1 (stereo not shown) [Compound 412, N-(2-cyclopentyl-1-(p-tolyl)ethyl)-2-oxo-6-(trifluoromethyl)-1,2-dihydropyridine-3-carboxamide]
The IC50 of the first is 76-fold higher: 8370 nM for the first, 110 nM for the second. The second is the more potent here.

`O=C(NC(c1ccc(OC(F)(F)F)cc1)c1ccc(OC(F)(F)F)cc1)c1ccc(C(F)(F)F)[nH]c1=O` [Compound 11, N-(bis(4-(trifluoromethoxy)phenyl)methyl)-2-oxo-6-(trifluoromethyl)-1,2-dihydropyridine-3-carboxamide] and `Cc1cc(C(F)(F)F)[nH]c(=O)c1C(=O)NC(c1ccccc1)c1ccc(CC(F)(F)F)cc1` (stereo not shown) [Compound 125, 4-methyl-2-oxo-N-(phenyl(4-(2,2,2-trifluoroethyl)phenyl)methyl)-6-(trifluoromethyl)-1,2-dihydropyridine-3-carboxamide] are within 1.5-fold of each other in IC50: 1090 nM for the first, 960 nM for the second.

`Cc1ccc2c(c1)S(=O)(=O)c1cc(C)ccc1C2NC(=O)c1cc(-c2ncccn2)c(C(F)(F)F)[nH]c1=O` [Compound 506, N-(3,6-dimethyl-10,10-dioxido-9H-thioxanthen-9-yl)-2-oxo-5-(pyrimidin-2-yl)-6-(trifluoromethyl)-1,2-dihydropyridine-3-carboxamide] gave an IC50 of 90 nM.
